Measured values taken from patent US6900225B2, “Quinolonecarboxylic acid derivative” (Daiichi Pharmaceutical Co., Ltd., priority 2001, dated 2005).
Values after ≈ are worked out from the molar mass of the structure shown. “Also recorded” adds a separate entry of the source. Counter-ions that a name gives are not always drawn.

How the values were obtained:
Slc:ddY mice = assay: Central toxicity after cisternal administration, alone or combined with biphenylacetic acid; format: in vivo; settings: 5 μg/mouse
Protocol: Slc:ddY mice (male; 3 weeks old) were used in groups of ten. Compound (1) was dissolved in distilled water in order to prepare injections, and the resultant solution was cisternally administered in a volume of […]. To the members of the group where compound (1) and biphenylacetic acid were used in combination, biphenylacetic acid (400 mg/kg) was perorally administered first, and 30 minutes following the administration, compound (1) was cisternally administered in a manner similar to that employed for the single use of compound (1).

[1] = system: methicillin-resistant Staphylococcus aureus (MRSA) strain 7866; assay: Infection-preventing effect on mouse sepsis model (MRSA); format: in vivo; settings: Slc:ddY mice, intraperitoneal MRSA 7866 1.07×10^8 CFU/mouse, single tail vein injection
Protocol: (§1) Groups of Slc:ddY mice, each group consisting of 7 mice, were used in the test. The mice were intraperitoneally inoculated with methicillin-resistant Staphylococcus aureus (MRSA) strain 7866 (1.07×10^8 CFU/mouse) or E. coli strain E77156 (8.08×10^7 CFU/mouse). Compound (1) was given as a single injection into the tail vein of each mouse immediately after infection. On the basis of the survival count on day 7 after infection, 50% efficacy was calculated using the probit method, to thereby evaluate the efficacy.

[2] = Moisture absorption/desorption (moisture absorption analyzer, weight change at 5-95% RH); format: physicochemical; settings: 25° C., relative humidity 5-95% RH; monohydrochloride monohydrate
Protocol: Moisture absorption/desorption of compound (1) was investigated by using samples each weighing approximately 10 mg and a moisture absorption analyzer manufactured by VTI (model SGA-100). The measurement was performed at 25° C., and the relative humidity was changed in the range of 5% to 95% at intervals of 5% or 10%. When the weight change of a sample is 0.03% or less within 30 minutes, the sample is considered to be in a state of equilibrium, and in this test, the longest equilibrium time was set to be 180 minutes. The weight change of each sample at different relative humidities was determined.

E. coli strain E77156 = assay: Infection-preventing effect on mouse sepsis model (E. coli); format: in vivo; settings: Slc:ddY mice, intraperitoneal E. coli E77156 8.08×10^7 CFU/mouse, single tail vein injection
Protocol: as §1

Solubility in water = format: physicochemical
Source text: Solubility of compound (1) in water was investigated.

S. aureus, 209P = assay: Antibacterial activity (MIC), Japanese Society of Chemotherapy standard method; format: cell-based; settings: Staphylococcus aureus
Protocol: (§2) Antibacterial activity was investigated by comparing compound (1) with comparative compounds B and C (see next page). This test was performed according to the standard method recommended by Japanese Society of Chemotherapy.

S. epidermidis, 56500 = assay: as above; format: cell-based; settings: Staphylococcus epidermidis
Protocol: as §2

[3] = system: Str. faecalis, ATCC 19433; assay: as above; format: cell-based; settings: Enterococcus faecalis, ATCC19433
Protocol: as §2

Pr. vulgaris, 08601 = assay: as above; format: cell-based; settings: Proteus vulgaris
Protocol: as §2

Ps. aeruginosa, 32121 = assay: as above; format: cell-based; settings: Pseudomonas aeruginosa
Protocol: as §2

Ser. marcescens, 10100 = assay: as above; format: cell-based; settings: Serratia marcescens
Protocol: as §2

Ps. aeruginosa, 32104 = assay: as above; format: cell-based; settings: Pseudomonas aeruginosa
Protocol: as §2

E. coli, NIHJ = assay: as above; format: cell-based; settings: Escherichia coli
Protocol: as §2

Balb/c mice = assay: Phototoxicity: intravenous administration, then UV-A exposure; format: in vivo; settings: intravenous 100 mg/kg, UV-A 20 J/cm^2 for four hours
Protocol: Groups of Balb/c mice (female; 5 weeks old), each group consisting of 5-6 mice, were used in the test. After compound (1) was intravenously administered to each mouse, the mouse was exposed to long-wavelength UV light (UV-A) (20 J/cm^2) for four hours. Thereafter, the auricle was visually observed for 96 hours. Subsequently the mouse was sacrificed for examination of the tissue. […] Thus, compound (1) is a very safe compound, being free from phototoxicity, which is often observed with quinolone-based antibacterial agents.

pneumococcus SPI-13 = assay: Therapeutic effect on mouse pneumonia model with pneumococcus of low penicillin sensitivity; format: in vivo; settings: CBA/J mice
Protocol: Groups of CBA/J mice, each group consisting of 5 mice, were used in the test. The mice were nasally infected with pneumococcus SPI-13 at 5.3×10^6 CFU/mouse. Compound (1) was subcutaneously administered to each mouse at doses of 7.5 mg/kg, 15 mg/kg, or 30 mg/kg, for three consecutive days from the day following infection, twice a day at an interval of 6 hours. The efficacy of compound (1) was assessed by counting the number of the intrapulmonary bacteria on the day following the final administration.

[4] = Storage stability for one week (heat, humidity, light), residual amount by liquid chromatography; format: physicochemical
Protocol: Compound (1) (1.5 mg) was stored for one week under the following conditions: (1) in a sealed bottle at 70° C., (2) in an open-air state at 50° C., 75% RH (NaCl), or (3) irradiation with light at 100,000 lx·h (2,500 lx×40 h). Subsequently, the residual amount of compound (1) was quantitatively determined by means of liquid chromatography.

[5] = system: arthrodial cartilage of young beagles; assay: Articular toxicity in young beagles, peroral for eight days; format: in vivo; settings: 7.5 mg/kg, 15 mg/kg and 30 mg/kg
Source text: Groups of young beagles (male; 3-4 months old), each group consisting of 3 dogs, were used in the test. Compound (1) was perorally administered to each dog for eight days. Thereafter, important diarthroses were pathologically examined. […] Thus, articular toxicity of compound (1) is quite weak and insignificant, proving that compound (1) is a very safe compound.

[6] = Stability of acid addition salts of compound (1a) under various levels of humidity; settings: high-humidity conditions
[7] = combined: biphenylacetic acid 400 mg/kg perorally 30 minutes before cisternal administration
[8] = solo cisternal administration, groups of ten

Row | MIC (S. aureus, 209P) | MIC (S. epidermidis, 56500) | MIC [3] | MIC (Pr. vulgaris, 08601) | MIC (Ps. aeruginosa, 32121) | MIC (Ser. marcescens, 10100) | MIC (Ps. aeruginosa, 32104) | MIC (E. coli, NIHJ) | Structure (SMILES) | Death (Slc:ddY mice; [7]) | Death (Slc:ddY mice; [8]) | Spasm (Slc:ddY mice; [8]) | also measured
1 |  |  |  |  |  |  |  |  | COc1c(N2C[C@@H](N)C3(CC3)C2)c(F)cc2c(=O)c(C(=O)O)cn([C@@H]3C[C@@H]3F)c12.CS(=O)(=O)O [methanesulfonic acid salt, Methanesulfonic Acid Salt of (−)-7-{(7S)-7-amino-5-azaspiro[2.4]heptan-5-yl}-6-fluoro-1-[(1R, 2S)-2-fluoro-1-cyclopropyl]-1,4-dihydro-8-methoxy-4-oxo-3-quinolinecarboxylic acid] |  |  |  | Stability under various levels of humidity [6]: tendency toward moisture absorption
2 |  |  |  |  |  |  |  |  | COc1c(N2C[C@@H](N)[C@@H](C)C2)c(F)cc2c(=O)c(C(=O)O)cn([C@@H]3C[C@@H]3F)c12 [Comparative Compound A, reference compound] | two | one | two | 
3 | 0.05 µg/mL (≈ 0.123 µM) | 0.2 µg/mL (≈ 0.491 µM) | 0.39 µg/mL (≈ 0.957 µM) | 0.05 µg/mL (≈ 0.123 µM) | 0.39 µg/mL (≈ 0.957 µM) | 0.2 µg/mL (≈ 0.491 µM) | 0.78 µg/mL (≈ 1.91 µM) | 0.025 µg/mL (≈ 0.0614 µM) | CCOc1c(N2CC(C)C(N)C2)c(F)cc2c(=O)c(C(=O)O)cn([C@@H]3C[C@@H]3F)c12 (stereo partly shown) [Comparative Compound C] |  |  |  | 
4 | 0.025 µg/mL (≈ 0.0596 µM) | 0.1 µg/mL (≈ 0.238 µM) | 0.2 µg/mL (≈ 0.477 µM) | 0.05 µg/mL (≈ 0.119 µM) | 0.2 µg/mL (≈ 0.477 µM) | 0.2 µg/mL (≈ 0.477 µM) | 0.39 µg/mL (≈ 0.93 µM) | 0.006 µg/mL (≈ 0.0143 µM) | CCOc1c(N2C[C@@H](N)C3(CC3)C2)c(F)cc2c(=O)c(C(=O)O)cn([C@@H]3C[C@@H]3F)c12 [Comparative Compound B] |  |  |  | 

Row | Structure (SMILES) | MIC (S. aureus, 209P) | MIC (S. epidermidis, 56500) | MIC [3] | MIC (Pr. vulgaris, 08601) | MIC (Ps. aeruginosa, 32121) | MIC (Ser. marcescens, 10100) | MIC (Ps. aeruginosa, 32104) | MIC (E. coli, NIHJ) | Death (Slc:ddY mice; [7]) | Death (Slc:ddY mice; [8]) | Spasm (Slc:ddY mice; [8]) | also measured
5 | COc1c(N2C[C@@H](N)C3(CC3)C2)c(F)cc2c(=O)c(C(=O)O)cn([C@@H]3C[C@@H]3F)c12 [Compound (1), (−)-7-[(7S)-7-amino-5-azaspiro[2.4]heptan-5-yl]-6-fluoro-1-[(1R, 2S)-2-fluoro-1-cyclopropyl]-1,4-dihydro-8-methoxy-4-oxo-3-quinolinecarboxylic acid monohydrochloride monohydrate] | 0.006 µg/mL | 0.05 µg/mL | 0.1 µg/mL | 0.012 µg/mL | 0.05 µg/mL | 0.05 µg/mL | 0.2 µg/mL | ≤ 0.003 µg/mL | neither spasm nor death | neither spasm nor death | neither spasm nor death | Spasm (Slc:ddY mice; [7]): neither spasm nor death; 50% efficacy (probit method, survival count on day 7) [1]: 3.34 mg/kg; Moisture absorption/desorption (weight change) [2]: neither absorbing or desorbing moisture; also recorded: do not absorb or desorb moisture; 50% efficacy (probit method, survival count on day 7) (E. coli strain E77156): 0.57 mg/kg; solubility (Solubility in water): ≥ 100 mg/mL; Phototoxicity: abnormality of auricle (visual observation 96 hours, tissue examination) (Balb/c mice): no abnormality was observed; Number of intrapulmonary bacteria (pneumococcus SPI-13; subcutaneous 7.5 mg/kg twice a day for three days): approximately half that of the control; Number of intrapulmonary bacteria (pneumococcus SPI-13; subcutaneous 15 mg/kg twice a day for three days): below the detection limit; Number of intrapulmonary bacteria (pneumococcus SPI-13; subcutaneous 30 mg/kg twice a day for three days): below the detection limit; Stability when exposed to light, compared with compound No. 26bb ([4]; light 100,000 lx·h (2,500 lx×40 h)): superior to that of compound No. 26bb; Stability (residual amount by liquid chromatography) ([4]; one week: sealed bottle 70° C., open 50° C., 75% RH, light 100,000 lx·h): remained stable, not undergoing any decomposition; Formation of blebs or erosions in arthrodial cartilage [5]: not at all observed
